AC50 and EC50 data for 10 molecules are collected here from US20220162200A1, “PKM2 MODULATORS AND METHODS FOR THEIR USE” (Sumitomo Dainippon Pharma Oncology, Inc., priority 2019, published 2022).

SMILES strings stand for the structures.

One assay concerns the target PKM2 (Homo sapiens, UniProt P14618). The experiment in a line: PKM2 activation assay (ATP formation measured by Kinase Glo). The format is biochemical. The note with it: 2 nM PKM2, 30 min pre-incubation, 75 μM ADP, 15 μM PEP, ATP formation after 30 min. As to the method:
Compounds were pre-incubated with 2 nM PKM2 in reaction buffer (50 mM Tris-HCl, pH 8.0, 200 mM KCl, 30 mM MgCl2, 2 mM Dithiothreitol (DTT), 5% Dimethyl sulfoxide (DMSO)) for 30 min at ambient temperature. Adenosine diphosphate (ADP) and Phosphoenolpyruvic acid (PEP) were then added to final concentrations of 75 μM and 15 μM, respectively. After 30 min, Adenosine triphosphate (ATP) formation was measured by Kinase Glo (Promega, Madison, Wis.), and AC50 values were determined using Prism (GraphPad Software, Inc., La Jolla, Calif.).

Another assay has as its system A549 cells. Briefly: A549 cell viability by ATPlite assay. The note with it: Homo sapiens, A549 cells in BME media lacking nonessential amino acids + 5% dialyzed serum, 72 hours. The format is cell-based. As to the method: A549 cells were seeded at 5000 cells per well (in 96-well plate) in Basal Medium Eagle (BME) media lacking nonessential amino acids+5% dialyzed serum. After 18 hours, a negative control (i.e., DMSO only) or a representative compound in 0.1% final concentration DMSO was added. After 72 hours, cell viability was determined by ATPlite assay and EC50 values were determined using Prism GraphPad Software (La Jolla, Calif.).

PKM2, sequence (P14618 whole entry): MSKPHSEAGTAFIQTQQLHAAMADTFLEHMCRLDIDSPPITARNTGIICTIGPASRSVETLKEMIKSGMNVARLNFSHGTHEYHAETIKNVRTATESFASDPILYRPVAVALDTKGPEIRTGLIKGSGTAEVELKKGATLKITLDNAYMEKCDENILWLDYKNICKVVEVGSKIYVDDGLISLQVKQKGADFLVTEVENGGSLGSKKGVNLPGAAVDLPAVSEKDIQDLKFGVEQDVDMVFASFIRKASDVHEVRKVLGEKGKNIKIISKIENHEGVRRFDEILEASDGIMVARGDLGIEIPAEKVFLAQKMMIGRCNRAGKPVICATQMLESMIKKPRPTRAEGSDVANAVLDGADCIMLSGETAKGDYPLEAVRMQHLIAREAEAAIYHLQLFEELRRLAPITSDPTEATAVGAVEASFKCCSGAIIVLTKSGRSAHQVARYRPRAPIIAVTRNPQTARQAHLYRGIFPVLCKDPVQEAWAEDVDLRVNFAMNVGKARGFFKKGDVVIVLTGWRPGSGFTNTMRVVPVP

For `Nc1cccc(Cl)c1CN(CCC1CCS(=O)(=O)CC1)C(=O)c1cc(C(F)(F)F)n[nH]1` [Compound Ia, N-(2-amino-6-chlorobenzyl)-N-(2-(1,1-dioxidotetrahydro-2H-thiopyran-4-yl)ethyl)-3-(trifluoromethyl)-1H-pyrazole-5-carboxamide], the AC50 on PKM2 is below 15 nM.
For the molecule `O=C(c1cc(C(F)(F)F)n[nH]1)N(CCC1CCS(=O)(=O)CC1)Cc1c(F)cccc1Br` [Compound Ib, N-(2-bromo-6-fluorobenzyl)-N-(2-(1,1-dioxidotetrahydro-2H-thiopyran-4-yl)ethyl)-3-(trifluoromethyl)-1H-pyrazole-5-carboxamide], the AC50 at PKM2 lay in the range of 15 to 50 nM. Also, in the assay on A549 cells, the EC50 was above 100 nM.
The matching figures for `Cc1ccc(F)c(CN(CCC2CCS(=O)(=O)CC2)C(=O)c2cc(C(F)(F)F)n[nH]2)c1` [Compound Ic, N-(2-(1,1-dioxidotetrahydro-2H-thiopyran-4-yl)ethyl)-N-(2-fluoro-5-methylbenzyl)-3-(trifluoromethyl)-1H-pyrazole-5-carboxamide]: 15 to 50 nM and 50 to 100 nM.
On to `O=C(c1cc(C(F)(F)F)n[nH]1)N(CCC1CCS(=O)(=O)CC1)Cc1c(F)ccc2cc[nH]c12` [Compound Id, N-(2-(1,1-dioxidotetrahydro-2H-thiopyran-4-yl)ethyl)-N-((6-fluoro-1H-indol-7-yl)methyl)-3-(trifluoromethyl)-1H-pyrazole-5-carboxamide], for which, at PKM2, the AC50 is below 15 nM.
Same read-out and setting: the same measure for `O=C(c1cc(C(F)(F)F)n[nH]1)N(CCC1CCS(=O)(=O)CC1)Cc1c(F)ccc2c(Cl)c[nH]c12` [Compound Ie, N-(2-(1,1-dioxidotetrahydro-2H-thiopyran-4-yl)ethyl)-N-((3-chloro-6-fluoro-1H-indol-7-yl)methyl)-3-(trifluoromethyl)-1H-pyrazole-5-carboxamide]: below 15 nM.
Regarding `NCc1ccc(F)c(CN(CCC2CCS(=O)(=O)CC2)C(=O)c2cc(C(F)(F)F)n[nH]2)c1` [Compound If, N-(2-(1,1-dioxidotetrahydro-2H-thiopyran-4-yl)ethyl)-N-(2-fluoro-5-aminomethylbenzyl)-3-(trifluoromethyl)-1H-pyrazole-5-carboxamide], on PKM2, the AC50 was in the range of 15 to 50 nM. For the same molecule, the half-maximal effective concentration (EC50) in the assay with A549 cells was above 100 nM.
The like results for `O=C(c1cc(C(F)(F)F)n[nH]1)N(CCC1CCS(=O)(=O)CC1)Cc1c(F)ccc2cn[nH]c12` [Compound Ig, N-(2-(1,1-dioxidotetrahydro-2H-thiopyran-4-yl)ethyl)-N-((6-fluoro-1H-indazol-7-yl)methyl)-3-(trifluoromethyl)-1H-pyrazole-5-carboxamide] were, in that order, 15 to 50 nM and above 100 nM.
Molecule `Nc1cccc(Br)c1CN(CCC1CCS(=O)(=O)CC1)C(=O)c1cc(C(F)(F)F)n[nH]1` [Compound Ih, N-(2-amino-6-bromobenzyl)-N-(2-(1,1-dioxidotetrahydro-2H-thiopyran-4-yl)ethyl)-3-(trifluoromethyl)-1H-pyrazole-5-carboxamide] returned an AC50 on PKM2 above 50 nM.
As for `Nc1ccccc1CN(CCC1CCS(=O)(=O)CC1)C(=O)c1cc(C(F)(F)F)n[nH]1` [Compound Ii, N-(2-aminobenzyl)-N-(2-(1,1-dioxidotetrahydro-2H-thiopyran-4-yl)ethyl)-3-(trifluoromethyl)-1H-pyrazole-5-carboxamide], at PKM2, the AC50 was above 50 nM. In addition, the EC50 in the assay on A549 cells was 50 to 100 nM.
As to `O=C(c1cc(C(F)(F)F)n[nH]1)N(CCC1CCS(=O)(=O)CC1)Cc1c(F)cccc1Cl` [Compound Ij, N-(2-chloro-6-fluorobenzyl)-N-(2-(1,1-dioxidotetrahydro-2H-thiopyran-4-yl)ethyl)-3-(trifluoromethyl)-1H-pyrazole-5-carboxamide], the AC50 at PKM2 is above 50 nM.
